Structures can show the parent of a compound that is named as a salt.
Legend:
[1] = Drug loading of liposomes: drug to lipid molar ratio and encapsulation efficiency (UV/Vis); format: physicochemical
Description: (§1) Empty liposomes were prepared by a lipid film hydration-extrusion method. HSPC, cholesterol, and DSPE-PEG2000 (mole percent 59.5/39.6/0.9) were dissolved in chloroform and a thin lipid film was formed by removing the organic solvent under vacuum in a rotary evaporator. The dry lipid film was hydrated in 300 mM ammonium sulfate at 60° C. for 30 min and the empty liposomes were formed with ammonium sulfate encapsulated in the aqueous core. After six freeze-thaw cycles between liquid nitrogen and water at 60° C., the empty liposomes were subsequently extruded ten times through polycarbonate filter membranes with a pore size of 0.2 μm. Unencapsulated ammonium sulfate was removed by dialysis against a 9.4% sucrose solution.
(§2) A reaction mixture containing 7.8 mg/mL of fingolimod hydrochloride (MedChem Express), 20.7 mM of lipids of empty liposomes and 50 mM histidine buffer (pH 7) was incubated at 60° C. for 15 min. The unencapsulated fingolimod hydrochloride was separated by a Sephadex™ G-50 Fine gel (GE Healthcare) or dialysis bag (Spectrum Labs) against a 9.4% sucrose solution to obtain the liposomal fingolimod formulation. The concentrations of the encapsulated fingolimod hydrochloride and the lipid of the liposomal fingolimod formulation were measured using an ultraviolet/visible (UV/Vis) spectrophotometer to calculate the drug to lipid molar ratio (D/L) of the liposomal fingolimod formulation.
(§3) The encapsulation efficiency was calculated by the drug to lipid molar ratio (D/L) of the fingolimod hydrochloride encapsulated liposomes compared to the nominal D/L of reaction mixture, which was calculated by dividing the concentration of fingolimod hydrochloride by the lipid concentration of empty liposome. The particle size distribution was measured by a dynamic light scattering instrument (Zetasizer Nano-ZS90, Malvern).
as §1, with “DPPG” for “DSPE-PEG2000”
as §2, with “7.2” for “7.8”, “ozanimod (DC Chemicals), 20.6” for “fingolimod hydrochloride (MedChem Express), 20.7”, “6.5)” for “7)”, “ozanimod” for “fingolimod hydrochloride”, “ozanimod” for “fingolimod”
as §3, with “ozanimod” for “fingolimod hydrochloride”
The liposome formulations were prepared according to Example 1, with the following trapping agents: (1) 75 mM of triethylammonium sucrose octasulfate, (2) 300 mM of ammonium sulfate, (3) 200 mM ammonium phosphate and (4) 7.0 mM of dextran sulfate.

[2] = Particle size distribution by dynamic light scattering; format: physicochemical
Description: as §3
as §3, with “ozanimod” for “fingolimod hydrochloride”

[3] = In vitro release through dialysis bag with fetal bovine serum; format: physicochemical; conditions: fetal bovine serum mixture, PBS pH 7.4 with 0.06N HCl, 37 °C
Description: To setup an in vitro release system, 0.5 mL of liposomal fingolimod formulation prepared according to Example 1 and 0.5 mL of free fingolimod hydrochloride were each mixed with 0.5 mL of fetal bovine serum. The free fingolimod/serum mixture and liposomal fingolimod/serum mixture were placed in separate dialysis bags (Spectra/Pro®6 dialysis membrane, MWCO 50 kDa, Spectrum Labs) and both ends of the dialysis bags were sealed. Each dialysis bag was immersed in 15 mL PBS at pH 7.4, containing 0.06N HCl, in a 50-mL centrifuge tube and incubated at 37±1° C. water bath. At designated time points after incubation (1, 2, 4, 8 and 24 hours), 0.5 mL aliquot from the 15-mL PBS was sampled and 0.5 mL of fresh PBS was added to replenish the sampling aliquot each time. Drug concentrations of the sampling aliquots at each time point were analyzed using HPLC to create the in vitro release profile of the tested formulations.

[4] = Pharmacokinetics study of liposomal fingolimod in rats; format: in vivo, Sprague-Dawley rats; conditions: IV 5 mg/Kg
Description: An in vivo PK evaluation of the liposomal fingolimod formulation was performed using 7- to 8-week-old female Sprague-Dawley rats. The rats were housed in a holding room which operated on a 12-hr light/12-hr dark circadian cycle with free access to water and food.
The rats were divided into three groups (n=4 in each group), one group received intravenous (IV) injection of 5 mg/Kg of free fingolimod hydrochloride, prepared by dissolving the fingolimod hydrochloride in a 9.4% sucrose solution containing 5% dimethyl sulfoxide with a final concentration of 2.00 mg/mL. The second group received intravenous (IV) injection of 5 mg/Kg of liposomal fingolimod formulation prepared according to Example 1. The third group received subcutaneous (SC) injection of 5 mg/Kg of liposomal fingolimod formulation prepared according to Example 1. Blood samples were collected at 5, 15 min, 1, 2, 4, 8, 24, 48, 72, and 96 hours post-injection. Plasma samples were obtained by centrifugation, kept frozen at -80° C. and analyzed using a noncompartmental analysis model in PKSolver (Comput. Methods Programs Biomed. 2010; 99(3):306-314).

[5] = Drug loading of liposomes: drug to lipid molar ratio and encapsulation efficiency (UV/Vis); format: physicochemical; conditions: fingolimod; HSPC/cholesterol/DPPG (59.5/39.6/0.9); trapping agent 2: 300 mM ammonium sulfate
[6] = DSPC/cholesterol/DSPE-PEG2000 (59.5/39.6/0.9), trapping agent 4: 7.0 mM dextran sulfate
[7] = HSPC/cholesterol (60/40), trapping agent 1: 75 mM triethylammonium sucrose octasulfate
[8] = ozanimod, HSPC/cholesterol/DPPG (59.5/39.6/0.9), trapping agent 2: 300 mM ammonium sulfate
[9] = DMPC/cholesterol/DSPE-PEG2000 (59.5/40/0.5), trapping agent 2: 300 mM ammonium sulfate
[10] = DPPC/cholesterol/DSPE-PEG2000 (55.9/38.7/5.4), trapping agent 3: 200 mM ammonium phosphate
[11] = HSPC/cholesterol/DSPE-PEG2000 (59.5/39.6/0.9), trapping agent 1: 75 mM triethylammonium sucrose octasulfate
[12] = HSPC/cholesterol/DSPE-PEG2000 (59.5/39.6/0.9), trapping agent 2: 300 mM ammonium sulfate

CC(C)Oc1ccc(-c2nc(-c3cccc4c3CC[C@@H]4NCCO)no2)cc1C#N [Ozanimod, ozanimod]
Encapsulation Efficiency [1, 6]: 79% | Purified D/L [1, 6]: 0.35 mole/mole | Encapsulation Efficiency [1, 7]: 100% | Purified D/L [1, 7]: 0.49 mole/mole | Encapsulation Efficiency [1, 8]: 100% | Purified D/L [1, 8]: 0.87 mole/mole | Average Particle Size [2, 6]: 364.2 nm | Average Particle Size [2, 7]: 215.2 nm | Average Particle Size [2, 8]: 186.7 nm

CCCCCCCCc1ccc(CCC(N)(CO)CO)cc1 [Fingolimod HCl, fingolimod hydrochloride]
Encapsulation Efficiency [1, 9]: 100% | Purified D/L [1, 9]: 1.13 mole/mole | Encapsulation Efficiency [1, 10]: 99% | Purified D/L [1, 10]: 0.88 mole/mole | Encapsulation Efficiency [1, 11]: 100% | Purified D/L [1, 11]: 1.28 mole/mole | Encapsulation Efficiency [1, 12]: 100% | Purified D/L [1, 12]: 1.11 mole/mole | Average Particle Size [2, 9]: 154.5 nm | Average Particle Size [2, 10]: 143.1 nm | Average Particle Size [2, 11]: 288.0 nm | Average Particle Size [2, 12]: 162.1 nm | Average Particle Size ([2]; fingolimod, HSPC/cholesterol/DPPG (59.5/39.6/0.9), trapping agent 2: 300 mM ammonium sulfate): 191.4 nm | fingolimod released through the dialysis bag within 4 hours ([3]; 4 hours): ~80% | release through the dialysis bag over 24 hours ([3]; 24 hours): > 80% | time after which eliminated from the circulation [4]: about 70 hours | AUC0-t/AUC0-inf ratio ([4]; 96 hours post-injection): approximately 100% | Encapsulation Efficiency [5]: 100% | Purified D/L [5]: 1.01 mole/mole
